According to paper PMC11157767 (Molecular Cancer, 2024):

Test system: TFG-MET allograft tumors
Experiment: RNA-sequencing, differential expression and GSEA of TFG-MET allograft tumors
Assay type: in vivo, mouse
Settings: GSEA CAP vs Veh, C5 GO CC
Method: Error bars display standard error of mean, statistical significance was determined using t-test analysis. (****;p<0.0001, ***;p<0.001, **;p<0.01, *;p<0.05). […] Each dot represents an individual replicate. Error bars display standard error of the mean.
Each dot represents one gene.

## CNC(=O)c1ccc(-c2cnc3ncc(Cc4ccc5ncccc5c4)n3n2)cc1F [Capmatinib]
Padj 2.19055e-16
  NES GOCC_TRANSFERASE_COMPLEX: -1.9384
Padj 5.1503e-15
  NES GOCC_NUCLEAR_SPECK: -2.161
Padj 1.72395e-14
  NES GOCC_SPLICEOSOMAL_COMPLEX: -2.415
Padj 7.63768e-14
  NES GOCC_CHROMOSOME_TELOMERIC_REGION: -2.533
Padj 7.95066e-13
  NES GOCC_VACUOLAR_MEMBRANE: 2.04
Padj 1.82971e-12
  NES GOCC_SMALL_SUBUNIT_PROCESSOME: -2.75
Padj 1.03541e-11
  NES GOCC_NUCLEAR_PORE: -2.588
Padj 1.07393e-11
  NES GOCC_FIBRILLAR_CENTER: -2.424
Padj 1.91271e-11
  NES GOCC_CHROMATIN: -1.714
Padj 2.94795e-11
  NES GOCC_PRERIBOSOME_LARGE_SUBUNIT_PRECURSOR: -2.651
Padj 4.53721e-11
  NES GOCC_METHYLTRANSFERASE_COMPLEX: -2.484
Padj 7.98955e-11
  NES GOCC_NUCLEAR_CHROMOSOME: -2.219
Padj 1.33777e-10
  NES GOCC_RESPIRATORY_CHAIN_COMPLEX: 2.821
Padj 2.5338e-10
  NES GOCC_NUCLEAR_PERIPHERY: -2.3519
Padj 3.91151e-9
  NES GOCC_NUCLEAR_ENVELOPE: -1.852
Padj 4.48536e-8
  NES GOCC_RIBONUCLEOPROTEIN_GRANULE: -2.04
Padj 5.62031e-8
  NES GOCC_CATALYTIC_STEP_2_SPLICEOSOME: -2.31
Padj 6.31135e-8
  NES GOCC_INTRACELLULAR_PROTEIN_CONTAINING_COMPLEX: -1.665
Padj 7.03454e-8
  NES GOCC_TRANSCRIPTION_REGULATOR_COMPLEX: -1.873
Padj 7.11025e-8
  NES GOCC_CAJAL_BODY: -2.347
Padj 1.20627e-7
  NES GOCC_U2_TYPE_SPLICEOSOMAL_COMPLEX: -2.187
Padj 1.31956e-7
  NES GOCC_CILIUM: 1.633
Padj 1.56303e-7
  NES GOCC_CONDENSED_CHROMOSOME: -2.04
Padj 1.76109e-7
  NES GOCC_IMMUNOGLOBULIN_COMPLEX: 2.5876
Padj 2.31902e-7
  NES GOCC_CHROMOSOME_CENTROMERIC_REGION: -2.023
Padj 2.54822e-7
  NES GOCC_TRANSFERASE_COMPLEX_TRANSFERRING_PHOSPHORUS_CONTAINING_GROUPS: -1.9355
Padj 6.10966e-7
  NES GOCC_MOTILE_CILIUM: 2.148
Padj 1.03286e-6
  NES GOCC_INNER_MITOCHONDRIAL_MEMBRANE_PROTEIN_COMPLEX: 2.0966
Padj 1.09294e-6
  NES GOCC_HISTONE_METHYLTRANSFERASE_COMPLEX: -2.238
Padj 1.29564e-6
  NES GOCC_TERTIARY_GRANULE: 2.058
Padj 1.93407e-6
  NES GOCC_NUCLEAR_MEMBRANE: -1.855
Padj 2.62751e-6
  NES GOCC_NADH_DEHYDROGENASE_COMPLEX: 2.526
Padj 3.06538e-6
  NES GOCC_SM_LIKE_PROTEIN_FAMILY_COMPLEX: -2.133
Padj 3.31031e-6
  NES GOCC_LATE_ENDOSOME_MEMBRANE: 2.097
Padj 3.74343e-6
  NES GOCC_RNA_POLYMERASE_COMPLEX: -2.068
Padj 4.96006e-6
  NES GOCC_HETEROCHROMATIN: -2.172
Padj 5.11894e-6
  NES GOCC_PROTEIN_ACETYLTRANSFERASE_COMPLEX: -2.115
Padj 1.16359e-5
  NES GOCC_CYTOPLASMIC_STRESS_GRANULE: -2.152
Padj 1.16897e-5
  NES GOCC_VACUOLAR_LUMEN: 1.934
Padj 1.40276e-5
  NES GOCC_SECRETORY_GRANULE_MEMBRANE: 1.763
Padj 1.71689e-5
  NES GOCC_OXIDOREDUCTASE_COMPLEX: 2.0601
Padj 2.05111e-5
  NES GOCC_EXTERNAL_SIDE_OF_PLASMA_MEMBRANE: 1.72
Padj 2.22571e-5
  NES GOCC_CONDENSED_CHROMOSOME_CENTROMERIC_REGION: -1.979
Padj 3.58719e-5
  NES GOCC_SNO_S_RNA_CONTAINING_RIBONUCLEOPROTEIN_COMPLEX: -2.2
Padj 3.73055e-5
  NES GOCC_PHAGOCYTIC_VESICLE: 1.9159
Padj 4.79591e-5
  NES GOCC_HOST_CELLULAR_COMPONENT: -2.0648
Padj 6.26347e-5
  NES GOCC_SITE_OF_DNA_DAMAGE: -2.003
Padj 6.43287e-5
  NES GOCC_AZUROPHIL_GRANULE: 1.861
Padj 6.63265e-5
  NES GOCC_KINETOCHORE: -1.897
Padj 6.99707e-5
  NES GOCC_AUTOPHAGOSOME: 2.034
Padj 0.000108731
  NES GOCC_RNA_POLYMERASE_II_TRANSCRIPTION_REGULATOR_COMPLEX: -1.813
Padj 0.000125034
  NES GOCC_PML_BODY: -1.9697
Padj 0.000154107
  NES GOCC_EXORIBONUCLEASE_COMPLEX: -2.113
Padj 0.000165343
  NES GOCC_ENDORIBONUCLEASE_COMPLEX: -2.09
Padj 0.000179714
  NES GOCC_SMALL_NUCLEAR_RIBONUCLEOPROTEIN_COMPLEX: -2.0229
Padj 0.000186482
  NES GOCC_IMMUNOGLOBULIN_COMPLEX_CIRCULATING: 2.324
Padj 0.000272562
  NES GOCC_TERTIARY_GRANULE_MEMBRANE: 2.004
Padj 0.000275827
  NES GOCC_VESICLE_LUMEN: 1.602
Padj 0.000331136
  NES GOCC_LYSOSOMAL_LUMEN: 1.858
Padj 0.000358866
  NES GOCC_REPLICATION_FORK: -1.947
Padj 0.000460788
  NES GOCC_PRECATALYTIC_SPLICEOSOME: -1.97
Padj 0.000526361
  NES GOCC_EUCHROMATIN: -2.018
Padj 0.000558545
  NES GOCC_FICOLIN_1_RICH_GRANULE_MEMBRANE: 2.085
Padj 0.000649179
  NES GOCC_CYTOCHROME_COMPLEX: 2.153
Padj 0.000678026
  NES GOCC_PROTEIN_DNA_COMPLEX: -1.836
Padj 0.000757696
  NES GOCC_SITE_OF_DOUBLE_STRAND_BREAK: -1.897
Padj 0.000783651
  NES GOCC_PROTON_TRANSPORTING_TWO_SECTOR_ATPASE_COMPLEX: 2.098
  NES GOCC_SPECIFIC_GRANULE: 1.663
Padj 0.000871379
  NES GOCC_MLL1_2_COMPLEX: -2.023
  NES GOCC_RESPIRATORY_CHAIN_COMPLEX_IV: 2.188
Padj 0.000882106
  NES GOCC_CILIARY_TRANSITION_ZONE: 1.976
Padj 0.000959119
  NES GOCC_BLOOD_MICROPARTICLE: 1.774
Padj 0.00129051
  NES GOCC_PHAGOCYTIC_VESICLE_MEMBRANE: 1.86
Padj 0.00130287
  NES GOCC_SECONDARY_LYSOSOME: 2.219
Padj 0.00152226
  NES GOCC_TRANSCRIPTION_ELONGATION_FACTOR_COMPLEX: -1.897
Padj 0.00173594
  NES GOCC_NUCLEAR_REPLICATION_FORK: -1.935
Padj 0.00174948
  NES GOCC_TELOMERASE_HOLOENZYME_COMPLEX: -1.978
Padj 0.00185976
  NES GOCC_H4_HISTONE_ACETYLTRANSFERASE_COMPLEX: -1.863
Padj 0.00189918
  NES GOCC_CILIARY_PLASM: 1.756
Padj 0.00219768
  NES GOCC_POLYSOME: -1.796
Padj 0.00279919
  NES GOCC_PCG_PROTEIN_COMPLEX: -1.842
Padj 0.00319727
  NES GOCC_T_CELL_RECEPTOR_COMPLEX: 2.053
  NES GOCC_U2_TYPE_CATALYTIC_STEP_2_SPLICEOSOME: -1.927
Padj 0.00331543
  NES GOCC_SIDE_OF_MEMBRANE: 1.318
Padj 0.00386407
  NES GOCC_AZUROPHIL_GRANULE_LUMEN: 1.725
  NES GOCC_EUKARYOTIC_TRANSLATION_INITIATION_FACTOR_3_COMPLEX: -1.892
Padj 0.00392051
  NES GOCC_PROTON_TRANSPORTING_TWO_SECTOR_ATPASE_COMPLEX_PROTON_TRANSPORTING_DOMAIN: 2.029
  NES GOCC_SYNAPTIC_VESICLE_MEMBRANE: 1.708
Padj 0.00460194
  NES GOCC_SMN_SM_PROTEIN_COMPLEX: -1.879
Padj 0.00465351
  NES GOCC_MHC_PROTEIN_COMPLEX: 2.03
Padj 0.00477082
  NES GOCC_PLASMA_MEMBRANE_BOUNDED_CELL_PROJECTION_CYTOPLASM: 1.5011
  NES GOCC_TRANSLATION_PREINITIATION_COMPLEX: -1.882
Padj 0.00505147
  NES GOCC_9PLUS2_MOTILE_CILIUM: 1.741
Padj 0.00518961
  NES GOCC_FICOLIN_1_RICH_GRANULE: 1.502
Padj 0.00609112
  NES GOCC_ENDOSOME_MEMBRANE: 1.2787
Padj 0.00659701
  NES GOCC_PRESPLICEOSOME: -1.8326
Padj 0.007008
  NES GOCC_ATPASE_COMPLEX: -1.657
Padj 0.00786364
  NES GOCC_ENDOLYSOSOME: 1.964
Padj 0.00886352
  NES GOCC_EUKARYOTIC_48S_PREINITIATION_COMPLEX: -1.849
Padj 0.00895831
  NES GOCC_PHAGOPHORE_ASSEMBLY_SITE: 1.892
Padj 0.00906928
  NES GOCC_INTRACILIARY_TRANSPORT_PARTICLE: 1.972
Padj 0.00954254
  NES GOCC_TRANSCRIPTION_REPRESSOR_COMPLEX: -1.652
